# Read-outs that look alike come from different tables or passages of the source.
# Experiments:
# [1] = target: T1, DYRK1A (Homo sapiens, UniProt Q13627); test: SF3B1 Thr434 phosphorylation in HeLa cells (immunoblot); assay type: cell-based; conditions: HeLa cells expressing GFP-SF3B1-NT, 18 h
# T1 construct: purchased ProQinase (Freiburg, Germany)
# Experimental: Fig 4 Inhibition of SF3B1 phosphorylation by DYRK1A in HeLa cells. HeLa cells expressing GFP-SF3B1-NT were treated with the indicated compounds for 18 h. The phosphorylation state of SF3B1 was determined by immunoblotting with pT434 antibody, and the results were normalized to the total amount of SF3B1 immunoreactivity. A, Representative western blots. […] The vertical line indicates where irrelevant lanes were deleted from the final image. B, The column diagram summarizes the quantitative evaluation of 3–6 experiments for each compound (means + SD).
# (500 ng/well) using FuGENE HD (Promega, Mannheim, Germany).
# [2] = target: T1, DYRK1A; test: Kinase-GLO luminescent kinase assay; assay type: biochemical; conditions: 1 μM compound; means of at least 3 measurements
# Experimental: (§1) Bacterial expression plasmids for GST-DYRK1A-ΔC and GST-DYRK2 have been described earlier. […] Expression in logarithmically growing E. coli culture was performed for 3 h at 37°C (GST-DYRK1A-ΔC and GST-DYRK2), 3 h at 26°C (GST-HIPK2cat), over night at 28°C (GST-CLK1cat) or over night at room temperature (GST-DYRK1Bcat).
# (§2) Compounds were screened for inhibitory effects against GST-DYRK1A-ΔC, GST-DYRK1Bcat, GST-DYRK2, GST-CLK1cat or GST-HIPK2cat using the Kinase-GLO Luminescent Kinase Assay from Promega. Assays were performed in a total volume of 10 μL in kinase-buffer (25 mM Hepes pH 7.4, 0.5 mM DTT, 5 mM MgCl2, 5 μM ATP) with appropriate peptide substrates (20 μM DYRKtide for the DYRKs and 100 μM DYRKtide for HIPK2, […]; or 100 μM RS domain-derived peptide for CLK1, […]). Assays were started with this amount of a kinase preparation that consumed approximately 90% of the ATP in the assay (linear range of the kinase titration curve). The reactions were run at room temperature for 30 min before 10 μL Kinase-GLO reagent was added. After incubation at room temperature for additional 10 min, luminescence was recorded for 1 s.
# [3] = target: T2, DYRK2 (Homo sapiens, UniProt Q92630); test: Kinase-GLO luminescent kinase assay; assay type: biochemical; conditions: 1 μM compound; means of at least 3 measurements
# T2 construct: purchased ProQinase (Freiburg, Germany)
# T2 sequence (Q92630 1-601): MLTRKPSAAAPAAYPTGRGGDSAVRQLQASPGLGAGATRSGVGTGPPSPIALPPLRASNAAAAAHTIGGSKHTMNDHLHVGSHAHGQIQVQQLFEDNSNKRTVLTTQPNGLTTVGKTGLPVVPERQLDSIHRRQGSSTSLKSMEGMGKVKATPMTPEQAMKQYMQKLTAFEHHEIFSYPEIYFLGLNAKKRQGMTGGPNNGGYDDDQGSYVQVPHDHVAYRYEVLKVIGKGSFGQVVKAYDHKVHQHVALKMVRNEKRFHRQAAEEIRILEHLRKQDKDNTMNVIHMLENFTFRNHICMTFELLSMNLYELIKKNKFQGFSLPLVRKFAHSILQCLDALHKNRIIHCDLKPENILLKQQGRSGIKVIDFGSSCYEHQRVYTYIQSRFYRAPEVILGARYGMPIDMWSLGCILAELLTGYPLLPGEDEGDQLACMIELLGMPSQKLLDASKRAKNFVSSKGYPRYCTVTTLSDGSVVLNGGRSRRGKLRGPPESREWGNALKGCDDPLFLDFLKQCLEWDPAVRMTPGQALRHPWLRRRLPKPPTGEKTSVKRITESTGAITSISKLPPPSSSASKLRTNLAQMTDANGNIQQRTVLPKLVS
# Experimental: as §1, §2
# [4] = system: DYRK1A; conditions: cited from earlier work
# [5] = target: T2, DYRK2; conditions: cited from earlier work
# [6] = system: Haspin; conditions: cited from earlier work
# [7] = target: T3, CLK1 (Homo sapiens, UniProt P49759); test: Kinase-GLO luminescent kinase assay; assay type: biochemical; set-up: made in house; host or cells: E. coli; conditions: 1 μM compound; means of at least 3 measurements
# Experimental: as §1, §2
# [8] = target: T4, DYRK1B (Homo sapiens, UniProt Q9Y463); test: Kinase-GLO luminescent kinase assay; assay type: biochemical; set-up: made in house; host or cells: E. coli; conditions: 1 μM compound; means of at least 3 measurements
# Experimental: as §1, §2
# [9] = target: T5, HIPK2 (Homo sapiens, UniProt Q9H2X6); test: Kinase-GLO luminescent kinase assay; assay type: biochemical; set-up: made in house; host or cells: E. coli; conditions: 10 μM compound; means of at least 3 measurements
# Experimental: as §1, §2
# [10] = target: T3, CLK1; set-up: purchased ProQinase (Freiburg, Germany); conditions: cited from earlier work
# [11] = target: T4, DYRK1B; set-up: purchased ProQinase (Freiburg, Germany); conditions: cited from earlier work
# [12] = target: HIPK1 (Homo sapiens, UniProt Q86Z02); set-up: purchased ProQinase (Freiburg, Germany); conditions: cited from earlier work
# Chain of HIPK1 (Q86Z02 whole entry): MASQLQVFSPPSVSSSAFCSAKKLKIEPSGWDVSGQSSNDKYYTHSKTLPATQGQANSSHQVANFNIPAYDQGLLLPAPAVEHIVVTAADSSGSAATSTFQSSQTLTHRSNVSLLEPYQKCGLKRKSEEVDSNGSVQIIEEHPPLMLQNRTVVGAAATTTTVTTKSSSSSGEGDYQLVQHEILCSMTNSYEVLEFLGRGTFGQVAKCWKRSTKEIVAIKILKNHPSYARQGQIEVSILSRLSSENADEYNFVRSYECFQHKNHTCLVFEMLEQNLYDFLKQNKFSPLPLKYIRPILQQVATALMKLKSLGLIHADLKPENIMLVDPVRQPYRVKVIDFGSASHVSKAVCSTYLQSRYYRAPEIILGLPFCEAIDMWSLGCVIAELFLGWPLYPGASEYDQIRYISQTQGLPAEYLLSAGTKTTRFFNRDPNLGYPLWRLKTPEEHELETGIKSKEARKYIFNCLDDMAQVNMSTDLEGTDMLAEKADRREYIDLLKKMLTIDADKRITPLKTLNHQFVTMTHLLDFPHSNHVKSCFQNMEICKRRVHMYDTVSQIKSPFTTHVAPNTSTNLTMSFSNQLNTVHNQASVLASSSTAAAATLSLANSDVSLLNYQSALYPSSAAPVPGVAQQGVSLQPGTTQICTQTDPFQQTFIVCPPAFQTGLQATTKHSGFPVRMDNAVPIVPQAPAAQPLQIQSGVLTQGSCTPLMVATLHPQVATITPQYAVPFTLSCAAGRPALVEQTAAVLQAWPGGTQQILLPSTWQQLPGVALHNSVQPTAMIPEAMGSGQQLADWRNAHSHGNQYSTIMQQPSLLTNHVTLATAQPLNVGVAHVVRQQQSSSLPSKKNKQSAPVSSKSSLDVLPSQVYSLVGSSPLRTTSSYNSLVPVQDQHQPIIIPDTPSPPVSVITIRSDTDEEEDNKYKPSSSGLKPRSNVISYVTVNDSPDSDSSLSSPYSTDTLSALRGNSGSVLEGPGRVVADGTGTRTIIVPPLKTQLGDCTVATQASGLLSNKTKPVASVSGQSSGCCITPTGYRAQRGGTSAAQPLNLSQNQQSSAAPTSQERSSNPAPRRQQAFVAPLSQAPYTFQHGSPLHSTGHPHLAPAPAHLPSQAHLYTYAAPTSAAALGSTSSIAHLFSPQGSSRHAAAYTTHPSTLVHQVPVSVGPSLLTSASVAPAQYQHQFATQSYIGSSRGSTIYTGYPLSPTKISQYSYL
# [13] = target: T5, HIPK2; set-up: purchased ProQinase (Freiburg, Germany); conditions: cited from earlier work
# [14] = target: HIPK3 (Homo sapiens, UniProt Q9H422); set-up: purchased ProQinase (Freiburg, Germany); conditions: cited from earlier work
# Chain of HIPK3 (Q9H422 whole entry): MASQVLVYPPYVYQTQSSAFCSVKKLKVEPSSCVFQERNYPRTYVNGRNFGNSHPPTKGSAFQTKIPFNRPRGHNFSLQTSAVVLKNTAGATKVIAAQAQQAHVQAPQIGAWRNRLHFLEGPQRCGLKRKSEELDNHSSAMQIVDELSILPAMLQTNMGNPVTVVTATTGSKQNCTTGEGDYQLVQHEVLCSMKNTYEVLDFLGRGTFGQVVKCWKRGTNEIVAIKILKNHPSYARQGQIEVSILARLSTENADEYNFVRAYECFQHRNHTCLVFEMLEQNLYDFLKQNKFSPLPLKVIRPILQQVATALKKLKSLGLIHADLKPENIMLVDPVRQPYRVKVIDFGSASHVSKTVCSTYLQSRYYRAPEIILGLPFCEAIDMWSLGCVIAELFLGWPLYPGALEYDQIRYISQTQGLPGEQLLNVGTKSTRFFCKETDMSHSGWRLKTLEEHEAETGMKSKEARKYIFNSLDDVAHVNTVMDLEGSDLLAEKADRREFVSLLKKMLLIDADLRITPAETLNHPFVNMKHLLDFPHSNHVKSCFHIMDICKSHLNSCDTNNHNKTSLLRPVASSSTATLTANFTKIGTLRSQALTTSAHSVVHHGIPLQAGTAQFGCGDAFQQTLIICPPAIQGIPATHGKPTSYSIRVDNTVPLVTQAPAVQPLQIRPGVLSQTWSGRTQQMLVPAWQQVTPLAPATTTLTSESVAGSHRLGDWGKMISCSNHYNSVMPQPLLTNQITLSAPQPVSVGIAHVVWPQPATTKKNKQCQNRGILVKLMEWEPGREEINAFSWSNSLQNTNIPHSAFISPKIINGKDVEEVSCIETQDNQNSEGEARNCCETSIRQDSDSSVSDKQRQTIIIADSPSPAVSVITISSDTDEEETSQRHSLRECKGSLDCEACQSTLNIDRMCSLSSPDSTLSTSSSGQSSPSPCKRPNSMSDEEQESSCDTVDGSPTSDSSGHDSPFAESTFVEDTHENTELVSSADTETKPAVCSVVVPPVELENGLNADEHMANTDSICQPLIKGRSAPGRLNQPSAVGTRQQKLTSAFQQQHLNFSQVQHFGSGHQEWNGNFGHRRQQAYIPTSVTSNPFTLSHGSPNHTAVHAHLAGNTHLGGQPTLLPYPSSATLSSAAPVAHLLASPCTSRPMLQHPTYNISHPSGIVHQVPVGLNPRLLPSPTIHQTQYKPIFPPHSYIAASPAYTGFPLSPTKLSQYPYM
# [15] = target: T6, HIPK4 (Homo sapiens, UniProt Q8NE63); set-up: purchased ProQinase (Freiburg, Germany); conditions: cited from earlier work
# T6 sequence (Q8NE63 1-616): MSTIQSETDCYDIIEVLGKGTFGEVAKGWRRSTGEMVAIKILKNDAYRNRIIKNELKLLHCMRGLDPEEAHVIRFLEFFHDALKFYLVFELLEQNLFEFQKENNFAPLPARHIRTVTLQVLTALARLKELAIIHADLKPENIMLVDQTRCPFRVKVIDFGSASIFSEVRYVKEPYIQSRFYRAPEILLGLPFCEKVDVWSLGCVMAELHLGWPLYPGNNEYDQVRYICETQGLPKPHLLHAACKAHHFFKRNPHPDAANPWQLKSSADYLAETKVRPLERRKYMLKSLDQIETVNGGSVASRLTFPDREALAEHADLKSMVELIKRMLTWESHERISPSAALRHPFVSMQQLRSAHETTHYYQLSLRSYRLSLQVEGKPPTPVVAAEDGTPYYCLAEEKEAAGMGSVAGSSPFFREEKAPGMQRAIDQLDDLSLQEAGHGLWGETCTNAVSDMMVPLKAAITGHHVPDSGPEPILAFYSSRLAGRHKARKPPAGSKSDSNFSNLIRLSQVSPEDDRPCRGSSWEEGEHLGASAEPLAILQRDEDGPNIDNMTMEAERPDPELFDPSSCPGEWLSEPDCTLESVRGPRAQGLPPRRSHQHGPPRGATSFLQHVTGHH
# [16] = target: IRAK1 (Homo sapiens, UniProt P51617); set-up: purchased ProQinase (Freiburg, Germany); conditions: 10 μM; cited from earlier work
# [17] = target: PIM1 (Homo sapiens, UniProt P11309); set-up: purchased ProQinase (Freiburg, Germany); conditions: cited from earlier work
# Chain of PIM1 (P11309 whole entry): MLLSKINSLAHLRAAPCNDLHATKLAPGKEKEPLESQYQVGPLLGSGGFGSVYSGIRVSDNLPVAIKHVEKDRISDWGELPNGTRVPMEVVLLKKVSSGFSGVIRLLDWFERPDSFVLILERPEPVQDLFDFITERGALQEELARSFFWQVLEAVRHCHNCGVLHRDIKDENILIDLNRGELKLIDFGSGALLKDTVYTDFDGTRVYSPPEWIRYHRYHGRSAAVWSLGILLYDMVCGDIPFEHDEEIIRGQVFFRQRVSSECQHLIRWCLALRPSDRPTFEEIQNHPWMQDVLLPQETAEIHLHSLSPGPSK
# [18] = target: PIM2 (Homo sapiens, UniProt Q9P1W9); set-up: purchased ProQinase (Freiburg, Germany); conditions: cited from earlier work
# Chain of PIM2 (Q9P1W9 whole entry): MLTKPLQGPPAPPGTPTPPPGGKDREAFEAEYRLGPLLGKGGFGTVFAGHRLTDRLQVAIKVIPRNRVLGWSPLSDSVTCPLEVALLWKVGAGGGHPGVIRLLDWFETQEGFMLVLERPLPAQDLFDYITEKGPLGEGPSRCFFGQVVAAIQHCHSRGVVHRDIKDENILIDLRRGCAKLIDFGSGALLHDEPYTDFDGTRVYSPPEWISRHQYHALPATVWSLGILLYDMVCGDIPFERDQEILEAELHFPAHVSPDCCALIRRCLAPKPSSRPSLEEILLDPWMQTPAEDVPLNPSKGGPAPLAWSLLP
# [19] = target: PIM3 (Homo sapiens, UniProt Q86V86); set-up: purchased ProQinase (Freiburg, Germany); conditions: cited from earlier work
# [20] = target: T7, CLK2 (Homo sapiens, UniProt P49760); conditions: cited from earlier work
# T7 construct: purchased ProQinase (Freiburg, Germany)
# T7 sequence (P49760 whole entry): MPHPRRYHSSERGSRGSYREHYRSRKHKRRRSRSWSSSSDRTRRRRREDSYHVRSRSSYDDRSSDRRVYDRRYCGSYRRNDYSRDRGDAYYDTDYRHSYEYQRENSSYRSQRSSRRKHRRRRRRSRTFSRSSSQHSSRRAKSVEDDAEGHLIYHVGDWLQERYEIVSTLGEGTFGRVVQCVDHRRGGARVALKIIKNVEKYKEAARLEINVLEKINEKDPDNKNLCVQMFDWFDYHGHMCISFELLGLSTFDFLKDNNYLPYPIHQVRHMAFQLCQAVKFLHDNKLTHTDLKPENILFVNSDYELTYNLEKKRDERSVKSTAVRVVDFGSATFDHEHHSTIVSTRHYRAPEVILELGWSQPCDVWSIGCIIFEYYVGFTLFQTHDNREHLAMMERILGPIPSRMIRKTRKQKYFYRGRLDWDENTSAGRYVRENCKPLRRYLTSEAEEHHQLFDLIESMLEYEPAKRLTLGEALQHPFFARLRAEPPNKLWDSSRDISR
# [21] = target: T8, CLK3 (Homo sapiens, UniProt P49761); conditions: cited from earlier work
# T8 construct: purchased ProQinase (Freiburg, Germany)
# T8 sequence (P49761 whole entry): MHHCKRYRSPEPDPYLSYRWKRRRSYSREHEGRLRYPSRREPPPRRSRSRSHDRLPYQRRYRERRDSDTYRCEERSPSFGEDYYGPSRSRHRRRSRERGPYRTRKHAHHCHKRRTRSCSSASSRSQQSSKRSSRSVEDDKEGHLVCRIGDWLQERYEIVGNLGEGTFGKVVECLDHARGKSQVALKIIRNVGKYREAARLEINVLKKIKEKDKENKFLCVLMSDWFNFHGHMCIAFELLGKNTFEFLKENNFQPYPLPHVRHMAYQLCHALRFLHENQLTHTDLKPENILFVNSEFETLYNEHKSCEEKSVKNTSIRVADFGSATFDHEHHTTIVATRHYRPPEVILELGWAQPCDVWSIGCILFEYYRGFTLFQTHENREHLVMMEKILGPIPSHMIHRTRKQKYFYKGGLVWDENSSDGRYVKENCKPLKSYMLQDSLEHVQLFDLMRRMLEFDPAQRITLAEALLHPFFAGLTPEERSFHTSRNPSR
# [22] = target: T9, DYRK3 (Homo sapiens, UniProt O43781); conditions: cited from earlier work
# T9 construct: purchased ProQinase (Freiburg, Germany)
# T9 sequence (O43781 1-588): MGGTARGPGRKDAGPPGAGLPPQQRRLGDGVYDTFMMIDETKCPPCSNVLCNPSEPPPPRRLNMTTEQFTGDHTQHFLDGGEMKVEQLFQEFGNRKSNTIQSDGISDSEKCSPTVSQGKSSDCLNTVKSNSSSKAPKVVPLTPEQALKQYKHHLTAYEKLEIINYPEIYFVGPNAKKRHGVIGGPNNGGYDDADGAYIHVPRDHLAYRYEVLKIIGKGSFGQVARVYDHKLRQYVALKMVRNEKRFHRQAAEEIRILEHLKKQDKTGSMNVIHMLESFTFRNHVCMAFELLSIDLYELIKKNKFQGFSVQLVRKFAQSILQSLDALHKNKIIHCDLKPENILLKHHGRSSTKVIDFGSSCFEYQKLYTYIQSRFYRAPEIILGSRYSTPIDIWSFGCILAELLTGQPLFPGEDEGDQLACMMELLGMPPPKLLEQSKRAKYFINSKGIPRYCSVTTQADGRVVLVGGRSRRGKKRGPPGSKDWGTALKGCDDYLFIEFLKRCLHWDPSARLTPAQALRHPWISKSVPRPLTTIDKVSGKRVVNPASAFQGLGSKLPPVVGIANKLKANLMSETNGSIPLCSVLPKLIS
# [23] = system: MAO-A; set-up: method as in PMID 25240617; conditions: 1 μM; cited from earlier work
# [24] = target: T10, DYRK4 (Homo sapiens, UniProt Q9NR20); conditions: 5 μM; cited from earlier work
# T10 construct: purchased ProQinase (Freiburg, Germany)
# T10 sequence (Q9NR20 whole entry): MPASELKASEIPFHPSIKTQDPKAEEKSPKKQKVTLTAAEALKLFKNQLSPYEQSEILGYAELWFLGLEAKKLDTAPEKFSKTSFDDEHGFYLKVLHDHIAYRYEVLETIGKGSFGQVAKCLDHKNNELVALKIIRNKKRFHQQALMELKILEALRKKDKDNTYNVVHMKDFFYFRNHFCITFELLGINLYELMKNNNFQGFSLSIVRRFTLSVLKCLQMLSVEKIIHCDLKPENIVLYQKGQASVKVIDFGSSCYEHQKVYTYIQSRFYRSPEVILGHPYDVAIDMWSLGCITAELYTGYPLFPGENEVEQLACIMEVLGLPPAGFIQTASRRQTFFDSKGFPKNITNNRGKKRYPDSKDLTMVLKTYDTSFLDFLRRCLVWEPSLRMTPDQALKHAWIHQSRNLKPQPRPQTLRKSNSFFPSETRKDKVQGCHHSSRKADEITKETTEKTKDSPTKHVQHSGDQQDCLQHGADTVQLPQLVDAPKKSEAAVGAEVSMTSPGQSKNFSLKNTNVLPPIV
compound,measurement,setting,value
N#CCn1c2c(Br)nccc2c2ccc(Cl)c(Cl)c21 [AnnH79],inhibition of DYRK1A-catalysed SF3B1 Thr434 phosphorylation,[1],does not inhibit DYRK1A
"COc1ccc2c(c1)[nH]c1c(C)nccc12 [Harmine, harmine]",Residual activity (% of control) DYRK1A,[2],27 % of control
same,Residual activity (% of control) DYRK2,[3],92 % of control
same,Residual activity (% of control),[5]; 1 μM,35 % of control
same,Residual activity (% of control),[5]; 10 μM,61 % of control
same,IC50,[6]; ref Cuny et al. 38,590 nM
same,Residual activity (% of control) CLK1,[7],23 % of control
same,Residual activity (% of control) DYRK1B,[8],11 % of control
same,Residual activity (% of control) HIPK2,[9],79 % of control
same,Residual activity (% of control),[10]; 10 μM,0 % of control
same,Residual activity (% of control),[11]; 10 μM,2 % of control
same,Residual activity (% of control),[12]; 1 μM,119 % of control
same,Residual activity (% of control),[12]; 10 μM,14 % of control
same,Residual activity (% of control),[13]; 1 μM,68 % of control
same,Residual activity (% of control),[13]; 10 μM,34 % of control
same,Residual activity (% of control),[14]; 1 μM,118 % of control
same,Residual activity (% of control),[14]; 10 μM,44 % of control
same,Residual activity (% of control),[15]; 10 μM,90 % of control
same,Residual activity (% of control),[16],66 % of control
same,Residual activity (% of control),[17]; 1 μM,74 % of control
same,Residual activity (% of control),[17]; 10 μM,85 % of control
same,Residual activity (% of control),[18]; 1 μM,101 % of control
same,Residual activity (% of control),[18]; 10 μM,43 % of control
same,Residual activity (% of control),[19]; 1 μM,74 % of control
same,Residual activity (% of control),[19]; 10 μM,78 % of control
COc1ccc2c3ccnc(C(F)(F)F)c3n(CCCCN)c2c1 [LDN-211898],Residual activity (% of control),[20]; 10 μM,1 % of control
same,Residual activity (% of control),[21]; 10 μM,63 % of control
same,Residual activity (% of control),[4]; 10 μM,0 % of control
same,Residual activity (% of control),[5]; 10 μM,14 % of control
same,Residual activity (% of control),[22]; 10 μM,3 % of control
same,Residual activity (% of control),[6]; 10 μM,0 % of control
same,Residual activity (% of control),[10]; 10 μM,0 % of control
same,Residual activity (% of control),[11]; 10 μM,2 % of control
same,Residual activity (% of control),[12]; 10 μM,59 % of control
same,Residual activity (% of control),[13]; 10 μM,47 % of control
same,Residual activity (% of control),[14]; 10 μM,51 % of control
same,Residual activity (% of control),[15]; 10 μM,72 % of control
same,Residual activity (% of control),[16],47 % of control
same,Residual activity (% of control),[17]; 10 μM,9 % of control
same,Residual activity (% of control),[18]; 10 μM,36 % of control
same,Residual activity (% of control),[19]; 10 μM,11 % of control
CCCCCCCn1c2cc(OC)ccc2c2ccnc(C)c21 [N9-heptyl harmine],inhibition of MAO-A,[23],13%
same,inhibition of DYRK1A,[4]; 1 μM,85%
c1ccc(-c2cc(-c3cncs3)cs2)cc1 [Thiophene 29],Residual activity (% of control),[20]; 5 μM,28 % of control
same,Residual activity (% of control),[21]; 5 μM,88 % of control
same,Residual activity (% of control),[4]; 5 μM,10 % of control
same,Residual activity (% of control),[5]; 5 μM,7 % of control
same,Residual activity (% of control),[22]; 5 μM,34 % of control
same,Residual activity (% of control),[24],87 % of control
same,Residual activity (% of control),[10]; 5 μM,4 % of control
same,Residual activity (% of control),[11]; 5 μM,0 % of control
same,Residual activity (% of control),[12]; 5 μM,96 % of control
same,Residual activity (% of control),[15]; 5 μM,93 % of control
same,Residual activity (% of control),[17]; 5 μM,78 % of control
same,Residual activity (% of control),[18]; 5 μM,93 % of control
